Target: T1, human orexin type 2 receptor (hOX2R) (Homo sapiens, UniProt O43614)
T1 construct: expressed in transfected cells
T1 sequence (O43614 1-444): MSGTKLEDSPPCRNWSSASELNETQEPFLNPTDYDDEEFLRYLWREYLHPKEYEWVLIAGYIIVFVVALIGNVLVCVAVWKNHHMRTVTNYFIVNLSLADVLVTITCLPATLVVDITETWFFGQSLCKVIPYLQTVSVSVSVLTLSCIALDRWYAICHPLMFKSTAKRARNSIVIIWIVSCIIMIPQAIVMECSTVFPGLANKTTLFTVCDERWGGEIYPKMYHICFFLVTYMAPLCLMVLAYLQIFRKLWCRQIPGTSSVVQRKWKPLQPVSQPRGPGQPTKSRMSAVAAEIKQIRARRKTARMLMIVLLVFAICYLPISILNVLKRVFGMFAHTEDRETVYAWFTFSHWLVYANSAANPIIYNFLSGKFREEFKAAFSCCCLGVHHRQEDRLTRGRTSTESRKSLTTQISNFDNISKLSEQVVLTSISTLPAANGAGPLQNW
Test: Measurement of orexin type 2 receptor agonist activity (calcium fluorescence, Fluo-4 AM, FDSS)
Type: cell-based
Conditions: CHO cells forcibly expressing human OX2 receptor; 100% = orexin A (human) 10 nM, 0% = DMSO
Source text: To obtain a cell clone stably expressing human orexin type 2 receptor, human orexin type 2 receptor cDNA was inserted into pcDNA3.1(+) plasmid vector (Invitrogen), and a plasmid DNA for expression of human orexin type 2 receptor (pcDNA3.1(+)/hOX2R) was cloned. The plasmid DNA was introduced into CHO-dhfr cell by an electroporation method, and human orexin type 2 receptor expressing clone cells were obtained by limiting dilution method by using G418 drug resistance as a selection marker.
CHO cells forcibly expressing human OX2 receptor were seeded in each well of 384 well black transparent bottom plate (BD Falcon) at 7,500 cells/well, and cultured for one day in a 5% CO2 incubator at 37° C. After removal of the medium in the cell plate, assay buffer A containing a calcium indicator (HBSS (Thermo Fisher Scientific), 20 mM HEPES (Thermo Fisher Scientific), 0.1% BSA (Wako Pure Chemical Industries, Ltd. or Sigma-Aldrich), 2.5 μg/mL Fluo-4 AM (DOJINDO Chemical), 0.08% Pluronic F127 (DOJINDO Chemical), 1.25 mM probenecid (DOJINDO Chemical)) was added at 30 μL/well. The plate was stood for 30 min in a 5% CO2 incubator at 37° C., and further stood at room temperature for 30 min. A test compound prepared by diluting with assay buffer B (HBSS, 20 mM HEPES, 0.1% BSA) was added at 10 μL/well, and the fluorescence value was measured by FDSSμCELL (Hamamatsu Photonics K.K.) every one sec for 1 min, and thereafter every two sec for 1 min 40 sec. The activity (%) of the test compound was calculated assuming that variation in the fluorescence value when DMSO was added instead of the test compound was 0%, and variation in the fluorescence value when orexin A (human) (PEPTIDE INSTITUTE, INC.) was added at the final concentration of 10 nM was 100%. Unless otherwise specified, the maximum agonist activity of each compound was 90% or more, when the maximum agonist activity of orexin A was considered as 100%.

Compound | EC50
CCOC(=O)N1CC[C@H](NS(C)(=O)=O)[C@@H]1CO[C@H]1CC[C@@H](c2ccccc2)CC1 (relative stereo) [Example 3, ethyl cis-3-((methylsulfonyl)amino)-2-(((cis-4-phenylcyclohexyl)oxy)methyl) pyrrolidine-1-carboxylate] | 240 nM
CS(=O)(=O)N[C@H]1CCN(C(=O)C2CC2)[C@H]1CO[C@H]1CC[C@@H](c2ccccc2)CC1 (relative stereo) [Example 4, N-(cis-1-(cyclopropylcarbonyl)-2-(((cis-4-phenylcyclohexyl)oxy)methyl)pyrrolidin-3-yl)methanesulfonamide] | 47 nM
CS(=O)(=O)N[C@H]1CCN(C(=O)N2CCC2)[C@H]1CO[C@H]1CC[C@@H](c2ccccc2)CC1 (relative stereo) [Example 6, N-(cis-1-(azetidin-1-ylcarbonyl)-2-(((cis-4-phenylcyclohexyl)oxy)methyl)pyrrolidin-3-yl)methanesulfonamide] | 17 nM
CS(=O)(=O)N[C@H]1CCN[C@H]1CO[C@H]1CC[C@@H](c2ccccc2)CC1 (relative stereo) [Example 2, N-(cis-2-(((cis-4-phenylcyclohexyl)oxy)methyl)pyrrolidin-3-yl)methanesulfonamide] | 3600 nM
COC(=O)N1CC[C@H](NS(C)(=O)=O)[C@@H]1CO[C@H]1CC[C@@H](c2ccccc2)CC1 (relative stereo) [Example 1, methyl cis-3-((methylsulfonyl)amino)-2-(((cis-4-phenylcyclohexyl)oxy)methyl)pyrrolidine-1-carboxylate] | 130 nM
CS(=O)(=O)N[C@H]1CCN(C(=O)CC(F)(F)F)[C@H]1CO[C@H]1CC[C@@H](c2ccccc2)CC1 (relative stereo) [Example 5, N-(cis-2-(((cis-4-phenylcyclohexyl)oxy)methyl)-1-(3,3,3-trifluoropropanoyl)pyrrolidin-3-yl)methanesulfonamide] | 760 nM

The remaining lines, values ahead:

EC50 | Compound
40 nM | CS(=O)(=O)N[C@H]1CCN(C(=O)C2CCC2)[C@H]1CO[C@H]1CC[C@@H](c2ccccc2)CC1 (relative stereo) [Example 7, N-(cis-1-(cyclobutylcarbonyl)-2-(((cis-4-phenylcyclohexyl)oxy)methyl)pyrrolidin-3-yl)methanesulfonamide]
410 nM | CC(C)(O)C(=O)N1CC[C@H](NS(C)(=O)=O)[C@@H]1CO[C@H]1CC[C@@H](c2ccccc2)CC1 (relative stereo) [Example 10, N-(cis-1-(2-hydroxy-2-methylpropanoyl)-2-(((cis-4-phenylcyclohexyl)oxy)methyl)pyrrolidin-3-yl)methanesulfonamide]
82 nM | CN(C)C(=O)N1CC[C@H](NS(C)(=O)=O)[C@@H]1COC1CCN(c2ncc(F)cn2)CC1 (relative stereo) [Example 11, cis-2-(((1-(5-fluoropyrimidin-2-yl)piperidin-4-yl)oxy)methyl)-3-((methanesulfonyl)amino)-N,N-dimethylpyrrolidine-1-carboxamide]
270 nM | CN(C)C(=O)N1CC[C@H](NS(C)(=O)=O)[C@@H]1CO[C@H]1CC[C@@H](c2ccccc2C(F)(F)F)CC1 (relative stereo) [Example 9, cis-3-((methanesulfonyl)amino)-N,N-dimethyl-2-(((cis-4-(2-(trifluoromethyl)phenyl)cyclohexyl)oxy)methyl)pyrrolidine-1-carboxamide]
13 nM | CN(C)C(=O)N1CC[C@H](NS(C)(=O)=O)[C@@H]1CO[C@H]1CC[C@@H](c2ccccc2)CC1 (relative stereo) [Example 8, cis-N,N-dimethyl-3-((methylsulfonyl)amino)-2-(((cis-4-phenylcyclohexyl)oxy)methyl)pyrrolidine-1-carboxamide]

— patent publication US11319286B2, “Heterocyclic compound and application thereof” (Takeda Pharmaceutical Company Limited, priority 2017, dated 2022)
